Test results: paper PMC12631831, “Painting Peptides With Antimicrobial Potency Through Deep Reinforcement Learning” (Advanced Science, 2025)
Read-outs that look alike come from different tables or passages of the source. Ends that are not written are not given here.

What was measured:
[1] = system: P.aeruginosa ATCC9027; conditions: ATCC9027, 18 h
Description: (§1) Four standard bacteria used for the MIC test were Escherichia coli ATCC25922, Pseudomonas aeruginosa ATCC9027, Staphylococcus aureus ATCC6538, and Bacillus subtilis ATCC6633. The testing procedures followed the Hancock methods.^[ [67] ^] The peptides were diluted in sterilized PBS to 512 µM as storage solutions. Then twofold gradient dilution was performed to make different concentrations (128, 64, 32, 16, 8, 4, 2, 1, 0.5, 0.25, and 0.125 µM) of AMPs. Each bacteria was incubated in LB broth at 37 °C until its absorbance at 625 nm reached 0.08–0.10, then diluted 10,000 times and added into a sterile 96‐well polypropylene plate (Grenier, #655201). A co‐incubation system included 100 µL peptide solution and 100 µL bacterial suspension.

[2] = system: S.aureus ATCC6538; conditions: ATCC6538, 18 h
Description: as §1

[3] = system: E.coli ATCC25922; conditions: ATCC25922, 18 h
Description: as §1

[4] = system: B.subtilis ATCC6633
Description: as §1

[5] = system: human erythrocytes; conditions: cited from earlier work
[6] = system: tumor cells; conditions: ref DRACP; cited from earlier work
[7] = system: rabbit erythrocytes; conditions: ref DBAASP; cited from earlier work

## FFHHIFRAIVHVGKTIHRLVTG [Piscidin 1 [G8A], reference compound]
[1]
  MIC P.aeruginosa: > 128 µM
[2]
  MIC S.aureus: 4 µM
[3]
  MIC E.coli: 16 µM
[4]; ATCC6633, 18 h
  MIC B.subtilis: 4 µM
[5]; ref DBAASP
  HC50: 4 µM

## GIKDWIKGAAKTLIKTVASHIANQ [Ascaphin-5, reference compound]
[1]
  MIC P.aeruginosa: 128 µM
[2]
  MIC S.aureus: 4 µM
[3]
  MIC E.coli: 16 µM
[4]; initial sequences of A01-A10, same conditions as A01-A10
  MIC B.subtilis: 16 µM
[5]; ref DRAMP
  HC50: > 200 µM

## GRKKRRQRRRGGWMWVTNLRTD [TAT-Ras-GAP317-326]
[6]
  Hemolysis and cytotoxicity: Enhances genotoxin-induced cytotoxicity in tumor cells

## SMWSGMWRRKLKKLRNALKKKLKGE [Latarcin-1]
[7]
  Concentration for 20% hemolysis: 80 µM
